Source: patent US10093630B2, “Pyrazole compounds and methods of making and using same” (ABIDE THERAPEUTICS, INC., priority 2014, dated 2018)
Read-outs that look alike come from different tables or passages of the source.

How the values were obtained:
Assay in all cases: In vitro competitive activity-based protein profiling (gel-based, FP-Rh or HT-01 probe)
Type in all cases: biochemical
MAGL = target: T1, MAGL (Mus musculus, UniProt O35678); settings: for inhibition at 1 µM: 1 μM inhibitor; for inhibition at 10 µM: 10 μM inhibitor; for IC50: mouse brain membrane fraction or cell lysates, 30 min preincubation at 37° C., read-out: Mouse (IC50 value, nM) MAGL
T1 construct: Proteomes (mouse brain membrane fraction or cell lysates); from tissue; host or cells: mouse brain membrane fraction (or cell lysates, not specified)
T1 sequence (O35678 1-303): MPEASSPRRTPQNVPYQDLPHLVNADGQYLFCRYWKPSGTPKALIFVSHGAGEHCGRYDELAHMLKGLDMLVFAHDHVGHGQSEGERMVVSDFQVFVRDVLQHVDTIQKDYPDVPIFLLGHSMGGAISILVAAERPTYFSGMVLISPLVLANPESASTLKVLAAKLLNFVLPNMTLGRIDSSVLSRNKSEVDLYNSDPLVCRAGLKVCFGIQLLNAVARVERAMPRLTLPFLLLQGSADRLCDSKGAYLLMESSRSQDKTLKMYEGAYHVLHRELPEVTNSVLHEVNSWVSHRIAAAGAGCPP
How it was run: (§1)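 Mouse brain membrane or cell lysate proteomes (1.0 mg/mL) preincubated with inhibitors 30 min at 37° C, then labelled with FP-Rh or HT-01 for 30 min at 37° C. After SDS-PAGE, activity quantified from fluorescent band intensity.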

FAAH = target: T2, FAAH (Mus musculus, UniProt O08914); settings: for inhibition at 1 µM: 1 μM inhibitor, read-out: % Inhibition at 1 μM, B = FAAH; for inhibition at 10 µM: 10 μM inhibitor, read-out: % Inhibition at 10 μM, B = FAAH; for IC50: mouse brain membrane fraction or cell lysates, 30 min preincubation at 37° C., read-out: Mouse (IC50 value, nM) FAAH
T2 construct: Proteomes (mouse brain membrane fraction or cell lysates); from tissue; host or cells: mouse brain membrane fraction (or cell lysates, not specified)
T2 sequence (O08914 1-579): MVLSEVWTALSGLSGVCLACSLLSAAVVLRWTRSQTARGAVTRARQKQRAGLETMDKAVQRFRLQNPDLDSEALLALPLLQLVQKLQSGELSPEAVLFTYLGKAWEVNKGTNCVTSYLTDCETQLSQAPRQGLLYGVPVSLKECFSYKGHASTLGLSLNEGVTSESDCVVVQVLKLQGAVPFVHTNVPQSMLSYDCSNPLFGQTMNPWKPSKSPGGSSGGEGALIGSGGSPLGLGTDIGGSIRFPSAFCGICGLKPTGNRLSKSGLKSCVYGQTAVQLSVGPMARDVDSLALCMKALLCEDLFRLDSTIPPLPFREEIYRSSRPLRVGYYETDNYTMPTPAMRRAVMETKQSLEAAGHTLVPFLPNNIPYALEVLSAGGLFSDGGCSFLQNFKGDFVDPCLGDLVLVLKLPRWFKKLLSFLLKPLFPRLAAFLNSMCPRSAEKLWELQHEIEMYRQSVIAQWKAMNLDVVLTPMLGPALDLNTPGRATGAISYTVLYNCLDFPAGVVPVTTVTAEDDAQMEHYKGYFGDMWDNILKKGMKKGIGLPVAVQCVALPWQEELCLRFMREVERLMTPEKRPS
How it was run: as §1

ABHD6 = target: T3, ABHD6 (Mus musculus, UniProt Q8R2Y0); settings: for inhibition at 1 µM: 1 μM inhibitor, read-out: % Inhibition at 1 μM, C = ABHD6; for inhibition at 10 µM: 10 μM inhibitor, read-out: % Inhibition at 10 μM, C = ABHD6; for IC50: mouse brain membrane fraction or cell lysates, 30 min preincubation at 37° C., read-out: Mouse (IC50 value, nM) ABHD6
T3 construct: Proteomes (mouse brain membrane fraction or cell lysates); from tissue; host or cells: mouse brain membrane fraction (or cell lysates, not specified)
T3 sequence (Q8R2Y0 1-336): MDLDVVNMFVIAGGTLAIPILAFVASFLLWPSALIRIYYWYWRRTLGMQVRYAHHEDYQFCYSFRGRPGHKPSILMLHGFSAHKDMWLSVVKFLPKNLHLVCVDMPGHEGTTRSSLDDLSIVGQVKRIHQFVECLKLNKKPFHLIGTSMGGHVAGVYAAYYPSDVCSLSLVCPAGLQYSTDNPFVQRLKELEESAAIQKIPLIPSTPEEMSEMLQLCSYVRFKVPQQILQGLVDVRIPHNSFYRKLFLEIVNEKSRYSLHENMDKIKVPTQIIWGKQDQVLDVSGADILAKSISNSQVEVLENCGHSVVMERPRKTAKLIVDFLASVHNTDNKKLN
How it was run: as §1

PLA2G7 = target: T4, PLA2G7 (Mus musculus, UniProt Q60963); settings: for inhibition at 1 µM: 1 μM inhibitor, read-out: % Inhibition at 1 μM, D = PLA2G7; for inhibition at 10 µM: 10 μM inhibitor, read-out: % Inhibition at 10 μM, D = PLA2G7; for IC50: mouse brain membrane fraction or cell lysates, 30 min preincubation at 37° C.
T4 construct: Proteomes (mouse brain membrane fraction or cell lysates); from tissue; host or cells: mouse brain membrane fraction (or cell lysates, not specified)
T4 sequence (Q60963 22-440): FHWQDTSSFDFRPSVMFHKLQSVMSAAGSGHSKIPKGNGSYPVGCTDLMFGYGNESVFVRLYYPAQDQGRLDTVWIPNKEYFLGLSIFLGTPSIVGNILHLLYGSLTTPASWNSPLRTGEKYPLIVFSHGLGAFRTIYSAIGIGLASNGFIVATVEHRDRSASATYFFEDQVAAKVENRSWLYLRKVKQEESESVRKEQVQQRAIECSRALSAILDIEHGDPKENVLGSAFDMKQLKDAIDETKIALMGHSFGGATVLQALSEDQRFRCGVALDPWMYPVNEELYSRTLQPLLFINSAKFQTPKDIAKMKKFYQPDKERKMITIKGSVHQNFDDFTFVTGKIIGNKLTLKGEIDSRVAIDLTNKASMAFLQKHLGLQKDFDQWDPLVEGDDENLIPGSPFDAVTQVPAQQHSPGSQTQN
How it was run: as §1

inhibition at 1 µM (MAGL) [%]	inhibition at 10 µM (MAGL) [%]	IC50 (MAGL) [nM]	inhibition at 1 µM (FAAH) [%]	inhibition at 10 µM (FAAH) [%]	IC50 (FAAH) [nM]	inhibition at 1 µM (ABHD6) [%]	inhibition at 10 µM (ABHD6) [%]	IC50 (ABHD6) [nM]	inhibition at 1 µM (PLA2G7) [%]	inhibition at 10 µM (PLA2G7) [%]	inhibition at 1 µM (MAGL; gel-based competitive ABPP) [%]	inhibition at 10 µM (MAGL; gel-based competitive ABPP) [%]	inhibition at 1 µM (FAAH; gel-based competitive ABPP) [%]	inhibition at 10 µM (FAAH; gel-based competitive ABPP) [%]	inhibition at 1 µM (ABHD6; gel-based competitive ABPP) [%]	inhibition at 10 µM (ABHD6; gel-based competitive ABPP) [%]	inhibition at 1 µM (PLA2G7; gel-based competitive ABPP) [%]	inhibition at 10 µM (PLA2G7; gel-based competitive ABPP) [%]	IC50 (PLA2G7) [nM]	SMILES
> 75	> 75	< 100	> 75	> 75	< 100	> 75	> 75	100 to 1000	25 to 75	> 75										O=C(N1CCN(Cc2ccc(-c3ccccc3)cc2Cl)CC1)n1cc(C(F)(F)F)cn1 [Example 143, (4-((3-Chlorobiphenyl-4-yl)methyl)piperazin-1-yl)(4-(trifluoromethyl)-1H-pyrazol-1-yl)methanone]
		100 to 1000			< 100			> 1000			> 75	> 75	> 75	> 75	< 25	> 75	< 25	25 to 75		CCN(Cc1ccc(Cl)cc1)C(=O)n1cc(C#N)cn1 [Example 252, N-(4-Chlorobenzyl)-4-cyano-N-ethyl-1H-pyrazole-1-carboxamide]
		100 to 1000			< 100			> 1000			25 to 75		> 75		25 to 75		< 25		> 1000	CCN(Cc1cccc(N2CCOCC2)c1)C(=O)n1cc(C(F)(F)F)cn1 [Example 261, N-Ethyl-N-(3-morpholinobenzyl)-4-(trifluoromethyl)-1H-pyrazole-1-carboxamide]
		< 100			< 100			< 100			> 75		> 75		> 75		> 75		< 100	O=C(N1CCN(Cc2cccc(N3CCCC3)c2)CC1)n1cc(C(F)(F)F)cn1 [Example 273, (4-(3-(Pyrrolidin-1-yl)benzyl)piperazin-1-yl)(4-(trifluoromethyl)-1H-pyrazol-1-yl)methanone]
		< 100			< 100			< 100			> 75		> 75		> 75		> 75		< 100	COc1cccc(CN2CCN(C(=O)n3cc(C(F)(F)F)cn3)CC2)c1 [Example 271, (4-(3-Methoxybenzyl)piperazin-1-yl)(4-(trifluoromethyl)-1H-pyrazol-1-yl)methanone]
> 75	> 75		> 75	> 75		> 75	> 75		> 75	> 75										COC(=O)c1cnn(C(=O)N2CCN(Cc3ccc4ccccc4c3)CC2)c1 [Example 15, Methyl 1-(4-(naphthalen-2-ylmethyl)piperazine-1-carbonyl)-1H-pyrazole-4-carboxylate]
	< 25			< 25			< 25			< 25										O=C(NCCCc1ccccc1)n1cccn1 [Example 31, N-(3-Phenylpropyl)-1H-pyrazole-1-carboxamide]

Further lines, the compound ahead of its results:

SMILES	inhibition at 1 µM (MAGL) [%]	inhibition at 10 µM (MAGL) [%]	IC50 (MAGL) [nM]	inhibition at 1 µM (FAAH) [%]	inhibition at 10 µM (FAAH) [%]	IC50 (FAAH) [nM]	inhibition at 1 µM (ABHD6) [%]	inhibition at 10 µM (ABHD6) [%]	IC50 (ABHD6) [nM]	inhibition at 1 µM (PLA2G7) [%]	inhibition at 10 µM (PLA2G7) [%]	inhibition at 1 µM (MAGL; gel-based competitive ABPP) [%]	inhibition at 10 µM (MAGL; gel-based competitive ABPP) [%]	inhibition at 1 µM (FAAH; gel-based competitive ABPP) [%]	inhibition at 10 µM (FAAH; gel-based competitive ABPP) [%]	inhibition at 1 µM (ABHD6; gel-based competitive ABPP) [%]	inhibition at 10 µM (ABHD6; gel-based competitive ABPP) [%]	inhibition at 1 µM (PLA2G7; gel-based competitive ABPP) [%]	inhibition at 10 µM (PLA2G7; gel-based competitive ABPP) [%]	IC50 (PLA2G7) [nM]
O=C(c1cnn(C(=O)N2CCN(Cc3cncnc3)CC2)c1)N1CCCCC1 [Example 75, Piperidin-1-yl(1-(4-(pyrimidin-5-ylmethyl)piperazine-1-carbonyl)-1H-pyrazol-4-yl)methanone]	< 25	< 25		< 25	< 25		< 25	> 75		> 75	> 75									
O=C(c1cnn(C(=O)N2CCN(Cc3ccncn3)CC2)c1)N1CCOCC1 [Example 54, (4-(Morpholine-4-carbonyl)-1H-pyrazol-1-yl)(4-(pyrimidin-4-ylmethyl)piperazin-1-yl)methanone]		25 to 75			< 25		< 25	25 to 75		< 25	> 75									
N#Cc1cnn(C(=O)N2CCCCCC2)c1 [Example 292, 1-(Azepane-1-carbonyl)-1H-pyrazole-4-carbonitrile]			> 1000			100 to 1000			> 1000			25 to 75	> 75	> 75	> 75	25 to 75	> 75	< 25	> 75	> 1000
N#Cc1cnn(C(=O)N2CCOCC2)c1 [Example 205, 1-(Morpholine-4-carbonyl)-1H-pyrazole-4-carbonitrile]	< 25	25 to 75		> 75	> 75		25 to 75	> 75		> 75	> 75									
O=C(N1CCN(Cc2ccc(Cl)c(Cl)c2)CC1)n1cc(Cl)cn1 [Example 211, (4-Chloro-1H-pyrazol-1-yl)(4-(3,4-dichlorobenzyl)piperazin-1-yl)methanone]	> 75	> 75	< 100	> 75	> 75	< 100	> 75	> 75	< 100	< 25	> 75									
O=C(c1cnn(C(=O)N2CCN(Cc3ccncc3)CC2)c1)N1CCOCC1 [Example 52, (4-(Morpholine-4-carbonyl)-1H-pyrazol-1-yl)(4-(pyridin-4-ylmethyl)piperazin-1-yl)methanone]		< 25			< 25		25 to 75	> 75		< 25	> 75									
